Data from publication PMC11325555, “Interaction of Bisphenol A and Its Analogs with Estrogen and Androgen Receptor from Atlantic Cod (Gadus morhua)” (Environmental Science & Technology, 2024).
“Also recorded” adds a separate entry of the source. Like-named read-outs stand apart in the source and are kept apart here.

Legend:
[1] = target: T1, Atlantic cod estrogen receptor alpha (gmEra) LBD (Gadus morhua, UniProt U5ILH7); test: Luciferase reporter gene assay, gmEra antagonism (antiestrogenic activity), coexposure with 3 nM EE2; type: cell-based; details: coexposure with EE2 (3 nM, EC20)
T1 sequence (U5ILH7 170-455): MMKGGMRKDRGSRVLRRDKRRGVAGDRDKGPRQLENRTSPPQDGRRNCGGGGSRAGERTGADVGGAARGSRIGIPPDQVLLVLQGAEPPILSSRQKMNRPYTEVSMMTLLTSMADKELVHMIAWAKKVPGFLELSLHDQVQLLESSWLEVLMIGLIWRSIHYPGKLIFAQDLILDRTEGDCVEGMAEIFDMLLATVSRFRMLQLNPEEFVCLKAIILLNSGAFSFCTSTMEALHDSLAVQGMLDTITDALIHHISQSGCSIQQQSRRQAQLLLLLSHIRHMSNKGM
Protocol: (§1) Ligand activation of gmEra and gmAra was studied with a luciferase reporter gene assay in COS-7 cells transiently transfected with the pCMX-GAL4(DBD)-gmEra(LBD) or pCMX-GAL4(DBD)-gmAra(LBD) plasmid by using the TransIT-LT1 reagent (TransIT-LT1 Transfection Reagent, Mirus). Cells were seeded into 96-well plates (5000 cells/well) and incubated for 24 h before cotransfection with the plasmid mixture (100 ng/well). The plasmid mixture contained GAL4-UAS luciferase reporter plasmid (tk-(MH100)x4 luc), the pCMX-GAL4(DBD)-gmEra(LBD) or pCMX-GAL4(DBD)-gmAra(LBD) receptor plasmids (2:1 reporter:receptor plasmid mass ratio), and a plasmid constitutively producing the β-galactosidase enzyme used for normalization of transfection efficiency (pCMV- β-Gal). […] The maximum DMSO/methanol concentrations in the exposure wells were 0.5% (v/v) in DMEM medium without phenol red (Sigma-Aldrich). After exposure, cells were lysed, and luciferase and beta-galactosidase activities were measured as luminescence and absorbance (420 nm) after the addition of luciferin and ONPG substrates, respectively, using an Enspire Multimode plate reader (PerkinElmer, Waltham, Massachusetts, USA).
To investigate potential antiestrogenic effects, COS-7 cells transiently expressing gmEra LBD were exposed to the 12 bisphenols in binary mixtures with a fixed concentration of EE2 (3 nM, corresponding to EC20) (Figure 2 and Table 1).
(§2) The dose–response curves were created using nonlinear regression and the four-parameter logistic fit in Graphpad Prism v.9. *p < 0.05 versus solvent control by ANOVA and Dunnett’s multiple comparison post hoc test.

[2] = target: T2, Atlantic cod androgen receptor alpha (gmAra) LBD (Gadus morhua, UniProt D5FIC7); test: Luciferase reporter gene assay, gmAra antagonism (antiandrogenic activity), coexposure with 5 nM testosterone; type: cell-based
T2 sequence (D5FIC7 409-718): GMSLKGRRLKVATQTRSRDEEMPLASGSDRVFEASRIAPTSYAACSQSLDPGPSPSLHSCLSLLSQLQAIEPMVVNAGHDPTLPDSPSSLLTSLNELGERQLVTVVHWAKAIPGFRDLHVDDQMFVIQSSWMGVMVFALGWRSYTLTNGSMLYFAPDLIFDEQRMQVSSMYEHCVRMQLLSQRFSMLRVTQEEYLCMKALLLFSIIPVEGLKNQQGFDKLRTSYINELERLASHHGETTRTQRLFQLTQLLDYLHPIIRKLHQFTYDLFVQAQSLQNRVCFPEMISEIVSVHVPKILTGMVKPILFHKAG
Protocol: as §1, §2

[3] = system: Er; set-up: method as in PMID 12651187; details: carp; cited from earlier work
[4] = system: human Era; set-up: method as in PMID 15635150; details: cited from earlier work
[5] = target: T1, Atlantic cod estrogen receptor alpha (gmEra) LBD; test: Luciferase reporter gene assay, gmEra agonism (estrogenic activity) in transfected COS-7 cells
Protocol: as §1
Luciferase reporter gene assays were established with COS-7 cells transiently producing the LBD of gmEra (Figure S1) for evaluating the estrogenic potential of 12 bisphenols.
COS-7 cells transiently transfected with gmEra-LBD were exposed to EE2 (open circles), BPA (black circles), and 11 different BPA analogs (red squares and as indicated) at increasing concentrations. Responses are presented as mean fold activation in luciferase activity in comparison to solvent-exposed cells ± SEM from three independent experiments with three technical replicates (n = 9). The dose–response curves were created using nonlinear regression and the four parameter logistic fit in Graphpad Prism v.9. For comparison, the dose–response curve of BPA (black line) is indicated together with each individual BP tested (red line). *p < 0.05 versus solvent control by one-way ANOVA and Dunnett’s multiple comparison post hoc test.

[6] = system: Er; set-up: method as in doi:10.11403/jset.11.133; details: medaka; cited from earlier work
[7] = target: T2, Atlantic cod androgen receptor alpha (gmAra) LBD; test: Luciferase reporter gene assay, gmAra agonism (androgenic activity) in transfected COS-7 cells
Protocol: as §1
Figure 3 Androgenic activity of bisphenols. COS-7 cells were transiently transfected with gmAra LBD and exposed individually to 12 bisphenol analogs at increasing concentrations. […] The dose–response curves were created using nonlinear regression and the four-parameter logistic fit in Graphpad Prism v.9. For comparison, the dose–response curve of BPA (black line) is indicated together with each individual BP tested (red line). *p < 0.05 versus solvent control by one-way ANOVA and Dunnett’s multiple comparison post hoc test.

For `CC(C)(c1ccc(O)cc1)c1ccc(O)cc1` [BPA, Bisphenol A], the “antiestrogenic effect on gmEra, result in words” value [1] was “did not antagonize gmEra; also recorded: no antiestrogenic effects”, the “effect on testosterone-mediated gmAra activity, result in words” value ([2]; BPs 0.003–50 μM with 5 nM testosterone) was “significantly decrease the testosterone-mediated Ara-activity” and the IC50 ([2]; gmAra IC50, in the presence of 5 nM testosterone (EC20)) was 140 nM. The EC50 [3] was 26000 nM, the EC50 [4] was 630 nM and the maximal fold induction ([5]; COS-7, monkey, 24 h, read-out: gmEra Emax) was 19.4. For the same compound, the “gmEra Emax” value ([5]; fold activation in luciferase activity vs solvent control, 24 h exposure, * = statistically significant, a = plateau not reached, highest fold activation obtained, 1440 min) was 19 fold activation, the EC50 ([5]; gmEra EC50, four-parameter logistic fit, 24 h exposure) was 1900 nM and the “gmEra REP50 (relative potency EC50, EC50-bisphenol A/EC50-bisphenol X)” value ([5]; relative to BPA) was 1.0. For the same compound, the EC50 [6] was 590 nM, the EC50 [7] was 25700 nM and the maximal fold induction ([7]; COS-7, monkey, 24 h, read-out: gmAra Emax) was 1.6. The “gmAra REP50 (relative potency EC50, EC50-bisphenol A/EC50-bisphenol X)” value ([7]; relative to BPA) was 1.0.
